In patent US7074831B2, “Compounds, methods for their preparation and use thereof” (Active Biotech AB, priority 2004, dated 2006):
pIC50: −log10 of the molar value. Where two headings read alike, the source gives them in different places.

How the values were obtained:
recombinant human DHODH = recombinant human DHODH (Homo sapiens, UniProt Q02127); experiment: Inhibition assay of DHODH activity (DHO-driven reduction of DCIP); format: biochemical
Method: Inhibition of recombinant human DHODH was assayed by the dihydroorotate (DHO) driven reduction of dichloroindophenol (DCIP), (Bruneau et al., 1998). The standard assay mixture contained 0.4 μg/mL recombinant protein, 50 mM Tris pH8, 100 μM decylubiquinone, 1 mM KCN, 200 μM DCIP and 0.1% Triton X-100. Inhibitory compounds were added at 10 different concentrations and the enzyme reaction initiated by the addition of 500 μM DHO. The reaction was allowed to continue for 10 minutes before the reduction of DCIP was measured in a microtiterplate reader as a decrease in absorbance at 650 nm. The IC50 values (concentration of inhibitor required for 50% inhibition) for each compound were calculated from the obtained dose response curves.

[1] = test system: human T lymphoblast cell line (Jurkat); experiment: Inhibition of T-cell proliferation (3H-TdR incorporation); format: cell-based; conditions: Jurkat cells; for pIC50: 3 days, read-out: Inhibition of T-cell proliferation in vitro. IC50
Method: Inhibition of T cell proliferation was studied in a functional assay. A human T lymphoblast cell line (Jurkat) was cultured in the presence and absence of DHODH inhibiting compounds. Jurkat cells were seeded in microtiterplates at a concentration of 5×10^5/mL in RPMI 1640 growth media supplemented with ultraglutamin, 10% fetal calf serum, 1 mM sodium pyruvat, 10 mM HEPES and 0.1 mg/mL gentamycin. A dilution series of ten different concentrations of inhibitor was added to the wells and the plates were kept in a cell incubator for 3 days. At the beginning of the last 4 hours period, the cultures were pulsed with 10 μl/well 0.1Ci/mmol ^3H-TdR and then harvested on filter papers and counted with a β-counter. The IC50 values for each compound were calculated from the obtained dose response curves. Adding 50 μM uridine to the wells monitored the specificity for the mechanism. This reverses the antiproliferative effect by bypassing the DHODH enzyme using an external source of pyrimidine.
Inhibition of T cell proliferation was studied in a functional assay. Table 1 exemplifies the invention, without limiting the scope thereof. A human T lymphoblast cell line (Jurkat) was cultured in the presence of the compound to be screened. The IC50 value for each compound was calculated from the dose response curve. Adding uridine was used to monitor the specificity of the DHODH mechanism.

[2] = Determination of pharmacokinetic properties in the mouse (cassette dosing); format: in vivo; conditions: female, SJL/N Tac, plasma, iv, i.v. administration, nominal dose 1 mg/kg/compound
Method: Female mice (SJL/N Tac) were given a single intravenous or oral dose of a mixture of 4 or 6 compounds per cassette (nominal dose: 1 mg/kg/compound). The test items were formulated in physiological saline/5% Cremophor® to a final concentration of each 0.1 mg/mL. Blood samples were collected from vena cava (terminal bleed) into sodium heparinised tubes. The dose formulations and plasma concentrations of each compound were determined by LC-MS/MS. The pharmacokinetic parameters were determined by non-compartmental analysis using WinNonlin Professional (version 4.0.1).
The clearance (CL) and half-life (t1/2) of representative compounds in the mouse following i.v. administration are shown in Table 2. Table 2 exemplifies the invention, without limiting the scope thereof.

Chain of recombinant human DHODH (Q02127 whole entry): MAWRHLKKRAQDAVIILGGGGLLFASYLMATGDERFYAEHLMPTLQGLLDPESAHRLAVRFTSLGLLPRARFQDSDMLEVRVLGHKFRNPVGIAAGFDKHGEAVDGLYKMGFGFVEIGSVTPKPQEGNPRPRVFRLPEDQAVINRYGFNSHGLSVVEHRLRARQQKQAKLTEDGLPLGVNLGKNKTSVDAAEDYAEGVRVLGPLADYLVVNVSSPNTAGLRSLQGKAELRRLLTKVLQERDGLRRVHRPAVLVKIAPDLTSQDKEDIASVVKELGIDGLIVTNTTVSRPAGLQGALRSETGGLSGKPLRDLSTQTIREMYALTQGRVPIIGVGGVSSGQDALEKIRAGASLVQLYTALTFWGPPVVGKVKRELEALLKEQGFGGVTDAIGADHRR

Row | pIC50 ([1]; Homo sapiens, 72 h) | clearance [2] | half-life [2] | SMILES | also measured
1 | 6.11 | 0.25 mL/min/kg | 3.1 h | CCC(=O)Nc1ccc(Oc2ccccc2C(F)(F)F)cc1C(=O)O [Compound L, 2-propionylamino-5-(2-trifluoromethyl-phenoxy)-benzoic acid] | –
2 | 6.28 | 2.33 mL/min/kg | 1.5 h | CCC(=O)Nc1ccc(COc2ccccc2C(F)(F)F)cc1C(=O)O [Compound N, 2-propionylamino-5-(2-trifluoromethyl-phenoxymethyl)-benzoic acid] | –
3 | 6.48 | 1.83 mL/min/kg | 4.9 h | CCC(=O)Nc1ccc(OCc2ccccc2C(F)(F)F)cc1C(=O)O [Compound M, 2-propionylamino-5-(2-trifluoromethyl-benzyloxy)-benzoic acid] | –
4 | 6.10 | 1.17 mL/min/kg | 2.2 h | CCC(=O)Nc1ccc(NCc2ccccc2C(F)(F)F)cc1C(=O)O [Compound K, 2-propionylamino-5-(2-trifluoromethyl-benzylamino)-benzoic acid] | –
5 | 6.62 | – | – | CCCNc1ccccc1Oc1ccc(NC(=O)CC)c(C(=O)O)c1 [Compound T, 2-propionylamino-5-(2-propylamino-phenoxy)-benzoic acid] | –
6 | 6.68 | – | – | CCC(=O)Nc1ccc(CSc2ccccc2C(F)(F)F)cc1C(=O)O [Compound P, 2-propionylamino-5-(2-trifluoromethyl-phenylsulfanylmethyl)-benzoic acid] | –
7 | 6.96 | – | – | CCCNc1ccccc1COc1ccc(NC(=O)CC)c(C(=O)O)c1 [Compound U, 2-propionylamino-5-(2-propylamino-benzyloxy)-benzoic acid] | –
8 | 6.85 | – | – | CCC(=O)Nc1ccc(Oc2cc(C(F)(F)F)cc(C(F)(F)F)c2)cc1C(=O)O [Compound S, 5-(3,5-bis-trifluoromethyl-phenoxy)-2-propionylamino-benzoic acid] | –
9 | 5.54 | – | – | CCC(=O)Nc1ccc(CCc2ccccc2C(F)(F)F)cc1C(=O)O [Compound J, 2-propionylamino-5-[2-(2-trifluoromethyl-phenyl)-ethyl]-benzoic acid, reference compound] | inhibitory effect on T-cell proliferation (in words) [1]: weak antiproliferative effect
10 | 6.60 | 0.55 mL/min/kg | 4.6 h | CCC(=O)Nc1ccc(Sc2ccccc2C(F)(F)F)cc1C(=O)O [Compound O, 2-propionylamino-5-(2-trifluoromethyl-phenylsulfanyl)-benzoic acid] | –

The remaining lines, values behind:

Row | SMILES | pIC50 ([1]; Homo sapiens, 72 h) | clearance [2] | half-life [2] | also measured
11 | COc1ccc(OC)c(COc2ccc(O)c(C(=O)O)c2)c1 [5-(2,5-dimethoxy-benzyloxy)-2-hydroxy-benzoic acid] | – | – | – | DHODH inhibition (in words) (recombinant human DHODH): inactive
12 | CCC(=O)Nc1ccc(Sc2ccccc2OC(F)(F)F)cc1C(=O)O [Compound AE, 2-propionylamino-5-(2-trifluoromethoxy-phenylsulfanyl)-benzioc acid] | – | – | – | pIC50 [1]: 6.41
13 | CCC(=O)Nc1ccc(/C=C/c2cccc(C(F)(F)F)c2)cc1C(=O)O [Compound R] | – | – | – | pIC50 [1]: 6.35
14 | COc1ccc(OC)c(CCc2ccc(NC(C)=O)c(C(=O)O)c2)c1 [Compound H, 2-Acetylamino-5-[2-(2,5dimethoxy-phenyl)-ethyl]-benzoic acid, reference compound] | 4.92 | – | – | inhibitory effect on T-cell proliferation (in words) [1]: very weak inhibitory effect
15 | CCC(=O)Nc1ccc(COc2ccccc2OC(F)(F)F)cc1C(=O)O [Compound AD, 2-propionylamino-5-(2-trifluoromethoxy-phenoxymethyl)-benzoic acid] | 6.62 | – | – | –
16 | CCCNc1ccccc1Sc1ccc(NC(=O)CC)c(C(=O)O)c1 [Compound AA, 2-propionylamino-5-(2-propylamino-phenylsulfanyl)-benzoic acid] | 7.40 | – | – | –
17 | CCC(=O)Nc1ccc(/C=C/c2ccccc2)cc1C(=O)O [Compound AG, 2-Propionylamino-5-[(E)-styryl]-benzoic acid] | – | 2 mL/min/kg | 10 h | –
18 | CCC(=O)Nc1ccc(Cc2ccccc2)cc1C(=O)O [Compound AH, 5-Benzyl-2-propionylamino-benzoic acid] | – | 0.3 mL/min/kg | 6.6 h | –
19 | CC(=O)Nc1ccc(CCc2ccccc2)cc1C(=O)O [Compound AF, 2-Acetylamino-5-phenethyl-benzoic acid, reference compound] | – | 16.2 mL/min/kg | 0.29 h | –
20 | CCC(=O)Nc1ccc(OCc2ccccc2OC(F)(F)F)cc1C(=O)O [Compound AC, 2-propionylamino-5-(2-trifluoromethoxy-benzyloxy)-benzoic acid] | 6.52 | – | – | –
21 | CCC(=O)Nc1ccc(/C=C/c2ccccc2C(F)(F)F)cc1C(=O)O [Compound Q] | – | – | – | pIC50 [1]: 6.96
22 | CCCN(CCC)c1ccccc1Oc1ccc(NC(=O)CC)c(C(=O)O)c1 [Compound AB, 5-(2-dipropylamino-phenoxy)-2-propionylamino-benzioc acid] | – | – | – | pIC50 [1]: 6.82
23 | COc1ccc(OC)c(COc2ccc(NC(C)=O)c(C(=O)O)c2)c1 [Compound G, 2-acetylamino-5-(2,5-dimethoxy-benzyloxy)-benzoic acid, reference compound] | 5.21 | 11.8 mL/min/kg | 0.3 h | inhibitory effect on T-cell proliferation (in words) [1]: only a weak inhibitory effect
